Results from US20230183753A1, “Methods of in Vitro Cell Delivery” (Intellia Therapeutics, Inc., priority 2020, published 2023).

Key:
Format in all cases: cell-based, human
B2M, CD3, MHC II = assay: Flow cytometry of antigen negative T cells (B2M, CD3, MHC II) after BC22n or Cas9 editing, Example 16A
Description: Cells were subsequently washed, processed on a Cytoflex instrument (Beckman Coulter) and analyzed using the FlowJo software package. T cells were gated based on size, shape, viability, and antigen expression.

[1] = system: B2M, TRAC, TRBC1/2, CIITA; assay: NGS editing profile of T cells with BC22n or Cas9 mRNA, single or four guides, LNP titration, Example 16A; settings: four guides simultaneously, with trans UGI;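 further: activated T cells exposed to LNPs 72 h after activation, kept at 37 °C, harvested on day 10 post activation, editing measured by NGS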
[2] = system: interchromosomal translocations; assay: UnIT structural variant assay (interchromosomal translocations), Example 16.B.7; settings: multiplex editing with 4 guides by LNP
Experimental: On day 8 post-editing a subset of T cells from the untreated, LNP-Cas9-4 guides and LNP-BC22n-4 guides samples were collected, spun down and resuspended in 100 μL of PBS. gDNA was isolated from the cells using DNeasy Blood & Tissue Kit (Qiagen Cat. 69504). The UnIT structural variant characterization assay was applied to these gDNA samples. High molecular weight genomic DNA is simultaneously fragmented and sequence-tagged (‘tagmented’) with the Tn5 transposase and an adapter with a partial Illumina P5 sequence and a 12 bp unique molecular identifier (UMI). Two sequential PCRs using a primer to P5 and hemi-nested gene specific primers (GSP) imparting the Illumina the P7 sequence to create two Illumina compatible NGS libraries per sample. Sequencing across both directions of the CRISPR/Cas9 targeted cut site with the two libraries allows the inference and quantification of structural variants in DNA repair outcomes after genome editing.

B2M, TRAC, TRBC, CIITA = assay: NGS percent editing after LNP delivery of BC22n or Cas9 with single or four guides, Example 16.B.6; settings: 4 guides delivered by LNP
Experimental: (§1) LNPs were formulated generally as in Example 1 with a single RNA species cargo. […] Seventy-two hours post activation, T cells were washed and suspended in OpTmizer media with cytokines without human serum. […] A control group including unedited T cells (no LNP) was also included. At 16 hours post-delivery, a subset of cells was used to measure cell viability and another subset of cells was processed for imaging of γH2AX foci. The remaining T cells continued to expand in culture. Media was changed 5 days and 8 days after activation and on the eleventh day post activation, cells were harvested for analysis by NGS, flow cytometry and UnIT. NGS was performed as in Example 1.
(§2) On day 8 post-editing, T cells were phenotyped by flow cytometry to determine B2M, CD3 and HLA II− DR, DP, DQ protein expression. Briefly, T cells were incubated in a cocktail of antibodies targeting B2M-APC/Fire™ 750 (BioLegend® Cat. No. 316314), CD3-BV605 (BioLegend® Cat. No. […]) and HLA II− DR, DP, DQ-PE (BioLegend® Cat. No. 361716). Cells were subsequently washed, processed on a Cytoflex flow cytometer (Beckman Coulter) and analyzed using the FlowJo software package. T cells were gated based on size, shape, viability, and MHC II expression. […]

[3] = system: B2M, CD3, HLA II-DR, DP, DQ; assay: Flow cytometry of surface proteins (B2M, CD3, HLA II-DR, DP, DQ) after LNP delivery, Example 16.B.6; settings: LNP treatment
Experimental: as §1, §2

BC22n: mRNA encoding editor: H. sapiens APOBEC3A fused to S. pyogenes-D10A Cas9 nickase by an XTEN linker, without UGI
% of cells lacking all three antigens (triple knockout: B2M, CD3, MHC II) (B2M, CD3, MHC II; four guides, with trans UGI, highest total RNA dose of 550 ng): 84.2% | R square, C to T conversions compared to antigen knockout (B2M, CD3, MHC II; samples treated with one guide only): 0.93 | maximum total editing for each locus compared with Cas9, in words [1]: higher percentages of maximum total editing for each locus | interchromosomal translocations / structural variation (UnIT), in words [2]: reduced to background levels | percent editing at each locus compared with Cas9, in words (B2M, TRAC, TRBC, CIITA): percent editing is higher at each locus | triple knockout cells compared with Cas9, in words [3]: greater percentage of triple knockout cells
